Entries after “also recorded” stand apart in the source; their conditions may differ.
System: target microorganisms
Assay: Screen of synthesized peptides for binding to target microorganisms (targeting peptides, Tables 2 and 3)
Conditions: microorganism(s) the targeting peptide was identified as binding to (Table 3)
Experimental: Once noted, these peptides were batch synthesized on a multiplex peptide synthesizer, yielding 5-10 mg of each peptide that could readily be screened for biological activity (e.g., binding activity and/or antimicrobial activity.
Other suitable targeting peptides include the peptides that have been identified as binding to particular target organisms as shown in Table 3 and/or Table 4.

Row | Substance | Target(s)
1 | 1T-118 (TASPPAPSDQGLRTAFPATLLIALAALARISR; synthetic novel tartgeting peptide IT-118) | A. naeslundii, F. nucleatum,; also recorded: P. gingivalis; also recorded: S. epidermidis,; also recorded: S. gordonii, S. mitis, S. mutans,; also recorded: S. oralis, S. salivarious,; also recorded: S. sanguinis
2 | 1T-119 (SPATQKAPTRAQPSRAPVQDCGDGRPTAAPDDVERLSPR; synthetic novel tartgeting peptide IT-119) | S. gordonii, S. mitis, S. mutans,; also recorded: S. oralis
3 | 1T-120 (DVRDRVDLAGADLCAAHATR; synthetic novel tartgeting peptide IT-120) | A. naeslundii, F. nucleatum,; also recorded: P. gingivalis; also recorded: S. epidermidis,; also recorded: S. gordonii, S. mitis, S. mutans,; also recorded: S. oralis, S. salivarious,; also recorded: S. sanguinis
4 | 1T-121 (FAKETGFGIGGAQEGWWIIADIYGPNPF; synthetic novel tartgeting peptide IT-121) | S. gordonii, S. mitis, S. mutans,; also recorded: S. oralis, S. salivarious,; also recorded: S. sanguinis
5 | 1T-122 (GAIPDPVTHRVDWEEDHQTRPSR; synthetic novel tartgeting peptide IT-122) | S. mitis
6 | 1T-123 (LVRRNAVAGRSDGLAGAEQLDLVRLQGVL; synthetic novel tartgeting peptide IT-123) | S. gordonii
7 | 1T-124 (LFDERNKIA; synthetic novel tartgeting peptide IT-124) | S. mitis, S. mutans, S. oralis
8 | 1T-125 (DAITGGNPPLSDTDGLRP; synthetic novel tartgeting peptide IT-125) | S. epidermidis, S. gordonii,; also recorded: S. mutans, S. oralis
9 | 1T-126 (QGLARPVLRRIPL; synthetic novel tartgeting peptide IT-126) | S. gordonii, S. mitis, S. mutans
10 | 1T-127 (YDPVPKRKNKNSEGKREE; synthetic novel tartgeting peptide IT-127) | A. naeslundii, F. nucleatum,; also recorded: P. gingivalis,; also recorded: T. denticolaS. gordonii,; also recorded: S. mitis, S. mutans, S. oralis,; also recorded: S. salivarious, S. sanguinis
11 | 1T-128 (SGSAIRMLEIATKMLKR; synthetic novel tartgeting peptide IT-128) | A. naeslundii, P. gingivalis; also recorded: S. epidermidis,; also recorded: S. gordonii, S. mitis, S. mutans,; also recorded: S. oralis, S. salivarious,; also recorded: S. sanguinis
12 | 1T-129 (YDKYIKYLSIQPPFIVYFI; synthetic novel tartgeting peptide IT-129) | A. naeslundii, P. gingivalis; also recorded: S. epidermidis,; also recorded: S. gordonii, S. mitis, S. mutans,; also recorded: S. oralis, S. salivarious,; also recorded: S. sanguinis
13 | 1T-130 (QKIIDMSKFLFSLILFIMIVVIYIGKSIGGYSAIVSSIMLELDTVLYNKKIFFIYK; synthetic novel tartgeting peptide IT-130) | A. naeslundii, F. nucleatum,; also recorded: P. gingivalis; also recorded: S. epidermidis,; also recorded: S. gordonii, S. mitis, S. mutans,; also recorded: S. oralis, S. salivarious,; also recorded: S. sanguinis
14 | 1T-131 (DEVWKMLGI; synthetic novel tartgeting peptide IT-131) | A. naeslundii, F. nucleatum,; also recorded: P. gingivalis,; also recorded: T. denticolaS. gordonii,; also recorded: S. mitis, S. mutans, S. oralis,; also recorded: S. salivarious, S. sanguinis
15 | 1T-132 (YSKKLFEYFYFIIFILIRYLIFYKIIQNKNYYINNIAYN; synthetic novel tartgeting peptide IT-132) | A. naeslundii, F. nucleatum,; also recorded: P. gingivalis; also recorded: S. epidermidis,; also recorded: S. gordonii, S. mitis, S. mutans,; also recorded: S. oralis, S. salivarious,; also recorded: S. sanguinis
16 | 1T-133 (YFIKDDNEALSKDWEVIGNDLKGTIDKYGKEFKVR; synthetic novel tartgeting peptide IT-133) | A. naeslundii, P. gingivalis; also recorded: S. epidermidis,; also recorded: S. gordonii, S. mitis, S. mutans,; also recorded: S. oralis, S. salivarious,; also recorded: S. sanguinis
17 | 1T-134 (SRLVREIKKKCRKS; synthetic novel tartgeting peptide IT-134) | A. naeslundii, F. nucleatum,; also recorded: P. gingivalis; also recorded: S. epidermidis,; also recorded: S. gordonii, S. mitis, S. mutans,; also recorded: S. oralis, S. salivarious,; also recorded: S. sanguinis
18 | 1T-135 (FESLLPQATKKIVNNKGSKINKIF; synthetic novel tartgeting peptide IT-135) | A. naeslundii, P. gingivalis; also recorded: S. epidermidis,; also recorded: S. gordonii, S. mitis, S. mutans,; also recorded: S. oralis, S. salivarious,; also recorded: S. sanguinis
19 | 1T-136 (ELLTQIRLALLYSVNEW; synthetic novel tartgeting peptide IT-136) | A. naeslundii, F. nucleatum,; also recorded: P. gingivalis,; also recorded: S. epidermidis, S. gordonii,; also recorded: S. mitis, S. mutans,; also recorded: S. oralis, S. salivarious,; also recorded: S. sanguinis
20 | 1T-137 (PLNFYRAVKENRLPLSEKNINDFTNIKLKVSPKLINLLQESSIFYNFSPKKRNTN; synthetic novel tartgeting peptide IT-137) | A. naeslundii, F. nucleatum,; also recorded: P. gingivalis; also recorded: S. epidermidis,; also recorded: S. gordonii, S. mitis, S. mutans,; also recorded: S. oralis, S. salivarious,; also recorded: S. sanguinis
21 | 1T-138 (YPNEYCIFLENLSLEELKEIKAINGETLNLEEIINERKNLKD; synthetic novel tartgeting peptide IT-138) | A. naeslundii, F. nucleatum,; also recorded: P. gingivalis; also recorded: S. epidermidis,; also recorded: S. gordonii, S. mitis, S. mutans,; also recorded: S. oralis, S. salivarious,; also recorded: S. sanguinis
22 | 1T-139 (AVAGAAVGALLGNDARSTAVGAAIGGALGAGAGELTKNK; synthetic novel tartgeting peptide IT-139) | A. naeslundiiS. gordonii,; also recorded: S. mitis, S. mutans, S. oralis
23 | 1T-140 (IKGTIAFVGEDYVEIRVDKGVKLTFRKSAIANVINNNQQ; synthetic novel tartgeting peptide IT-140) | A. naeslundii, F. nucleatum,; also recorded: P. gingivalis; also recorded: S. epidermidis,; also recorded: S. gordonii, S. mitis, S. mutans,; also recorded: S. oralis, S. salivarious,; also recorded: S. sanguinis
24 | 1T-141 (KKFIILLFILVQGLIFSATKTLSDIIAL; synthetic novel tartgeting peptide IT-141) | F. nucleatum, P. gingivalis; also recorded: S. epidermidis,; also recorded: S. gordonii, S. mitis, S. mutans,; also recorded: S. oralis, S. sanguinis
25 | 1T-142 (FTQGIKRIVLKRLKED; synthetic novel tartgeting peptide IT-142) | A. naeslundii, F. nucleatum,; also recorded: P. gingivalis,; also recorded: T. denticolaS. gordonii,; also recorded: S. mitis, S. mutans, S. oralis,; also recorded: S. salivarious, S. sanguinis
26 | 1T-143 (MPKRHYYKLEAKALQFGLPFAYSPIQLLK; synthetic novel tartgeting peptide IT-143) | A. naeslundii, F. nucleatum,; also recorded: P. gingivalis; also recorded: S. epidermidis,; also recorded: S. gordonii, S. mitis, S. mutans,; also recorded: S. oralis, S. salivarious,; also recorded: S. sanguinis

Reference: patent US8389679B2, “Targeted antimicrobial moieties” (priority 2009, dated 2013)
